Source: patent US8734852B2, “Parenteral controlled release formulations of NSAID's” (priority 2011, dated 2014)

Assays:
COX-I = COX-I (Homo sapiens, UniProt P23219); conditions: oral form; cited from earlier work
[1] = upon dissolution in solvents; cited from earlier work
[2] = cited from earlier work
[3] = system: interleukin1b-induced prostaglandin E2 production; conditions: cited from earlier work
[4] = aqueous formulation; cited from earlier work
Acute Lumbago patients = assay: Randomized comparative open labeled multicentric trial in Acute Lumbago (Phase III, 300 patients); format: in vivo, human; conditions: at 8 hrs, 24 hrs and after 48 hrs of treatment; p<0.05

Chain of COX-I (P23219 24-599): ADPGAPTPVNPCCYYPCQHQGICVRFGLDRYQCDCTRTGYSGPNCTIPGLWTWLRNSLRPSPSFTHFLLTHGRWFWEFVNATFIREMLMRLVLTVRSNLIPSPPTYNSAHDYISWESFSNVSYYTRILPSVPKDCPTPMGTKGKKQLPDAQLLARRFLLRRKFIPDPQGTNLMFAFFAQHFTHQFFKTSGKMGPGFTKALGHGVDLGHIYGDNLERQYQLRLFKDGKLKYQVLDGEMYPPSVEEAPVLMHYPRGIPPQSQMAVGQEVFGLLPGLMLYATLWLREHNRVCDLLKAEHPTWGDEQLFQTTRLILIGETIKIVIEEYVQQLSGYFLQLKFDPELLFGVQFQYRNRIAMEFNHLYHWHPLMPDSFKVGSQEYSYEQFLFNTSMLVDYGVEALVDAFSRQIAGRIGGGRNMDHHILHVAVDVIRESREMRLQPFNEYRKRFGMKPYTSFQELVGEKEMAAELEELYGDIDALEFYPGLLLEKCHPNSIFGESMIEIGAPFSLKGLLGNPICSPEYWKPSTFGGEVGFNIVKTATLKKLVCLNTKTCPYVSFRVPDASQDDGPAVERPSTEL

O=C(O)COC(=O)Cc1ccccc1Nc1c(Cl)cccc1Cl [Aceclofenac]
COX-I inhibitor effect (COX-I): poor COX-I inhibitor effect | conversion into diclofenac [1]: immediately upon dissolution in most of the solvents | solubility in water [2]: water insoluble | interleukin1b-induced prostaglandin E2 production [3]: inhibits

O=C(O)Cc1ccccc1Nc1c(Cl)cccc1Cl [Diclofenac]
retention of drug inside body [4]: ≤ 8 h | solubility in water [2]: soluble in water | modified Schober's test improvement (Acute Lumbago patients): progressive improvements
